“Also recorded” adds a separate entry of the source. Like-named read-outs stand apart in the source and are kept apart here. Blank lines part the entries; values can stand above or below the molecule they belong to.
What was measured:
[1] = system: deoxyhypusine synthase from HTC cells; settings: 20 μM inhibitor; 1 μM spermidine; precursor from DFMO-treated HTC cells; cited from earlier work
[2] = biological target: T1, deoxyhypusine synthase from rat testis (Rattus norvegicus, UniProt Q6AY53); assay: Inhibition of deoxyhypusine synthase ([3H]deoxyhypusine formation from [3H]spermidine), IC50/Ki; assay type: biochemical; settings: for relative inhibitory potency (in words): comparison with parent amine, bisguanylated counterpart or another inhibitor; for Ki: competitive vs spermidine
T1 construct: as catalyzed by deoxyhypusine synthase from rat testis; from tissue; host or cells: rat testis
T1 sequence (Q6AY53 1-369): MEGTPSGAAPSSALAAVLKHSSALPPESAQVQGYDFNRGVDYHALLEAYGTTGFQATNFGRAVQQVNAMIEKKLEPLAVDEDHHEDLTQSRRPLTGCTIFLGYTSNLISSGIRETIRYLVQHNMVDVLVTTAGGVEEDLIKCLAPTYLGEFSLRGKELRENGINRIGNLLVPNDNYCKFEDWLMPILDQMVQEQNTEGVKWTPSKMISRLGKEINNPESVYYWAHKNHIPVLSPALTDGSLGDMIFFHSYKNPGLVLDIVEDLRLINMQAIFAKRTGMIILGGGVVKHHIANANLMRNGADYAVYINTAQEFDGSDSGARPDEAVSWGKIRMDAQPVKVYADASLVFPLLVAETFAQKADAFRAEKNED
Description: The enzyme assay was performed as previously described (see Wolff et al. (1990) J. Biol. Chem. 265:4793-4799; and Park et al. (1991) J. Biol. Chem. 266:7988-7994). A typical assay mixture included 0.2M glycine, 1 mM dithiothreitol, 0.5 mM NAD^+, 2.4 micromolar (μM) [1,8-^3 H] spermidine, 1 μM ec-eIF-5A(Lys), 25 micrograms (μg) bovine serum albumin, and 3-15 units of enzyme in a total volume of 20 microliters (μl). Incubations were carried out at pH 9.3 and 37° C. for 1 hour. […] Percent inhibition was plotted versus log inhibitor concentration in order to obtain graphic estimates of IC50 values, i.e., the concentrations inhibiting [^3 H]deoxyhypusine production by 50%. The IC50 values reported in the tables were calculated by fitting the data points to equation 1 where x=% inhibition and I is the inhibitor concentration. [formula] The nature of the inhibition was determined by plotting reciprocal velocities of [^3 H]deoxyhypusine production against reciprocals of [^3 H]spermidine concentrations at a constant fixed level of ec-eIF-5A(Lys) (1 μM) and at set inhibitor concentrations. […] Estimates of Ki values were made by fitting the data to equation 2; wherein v is the velocity of the reaction, V is the maximum velocity, S is the substrate concentration, Km is Michaeli's constant, Ki is the inhibition constant, and I is the inhibitor concentration. [formula] All fits were performed by means of an interactive curve-fitting program, MLAB, developed and modified at the National Institutes of Health to run on an IBM personal computer.

deoxyhypusine synthase = biological target: T2, deoxyhypusine synthase (Rattus norvegicus, UniProt Q6AY53); settings: earlier publications, cited from earlier work
T2 construct: full-length homotetramer; substrate was human eIF-5A precursor expressed in E. coli
T2 sequence (Q6AY53 1-369): T1 sequence (Q6AY53 1-369)

[3] = cited from earlier work
[4] = pH 9.3, 37° C., 1 hour, 2.4 μM [3H]spermidine

Molecule: NCCCNCCC(F)CN (stereo not drawn) [7-monofluorospermidine]
inhibition of deoxyhypusine synthase [1]: 35%

Molecule: NCCCN [Compound 2, 1,3-diaminopropane]
inhibition of deoxyhypusine synthase (in words) ([2]; pH 9.3, 37° C., 1 hour, 2.4 μM [3H]spermidine, listed as 1,3-diaminopropane): inhibit
inhibition of deoxyhypusine synthase (in words) ([2]; pH 9.3, 37° C., 1 hour, 2.4 μM [3H]spermidine, listed as compound 2): exerts product inhibition; also recorded: inhibit the enzyme
type of inhibition (kinetics) ([2]; varied [3H]spermidine, ec-eIF-5A(Lys) fixed at 1 μM): competitive

Molecule: NCCCCN [Compound 3, putrescine]
inhibition of deoxyhypusine synthase (in words) ([2]; pH 9.3): inhibit the enzyme

inhibition of deoxyhypusine synthase (in words) [2, 4]: does not
Molecule: NCCCCCN [Compound 4, cadaverine]

inhibition of deoxyhypusine synthase (in words) [2, 4]: displays inhibition
Molecule: NCCCCCCN [Compound 5, 1,6-diaminohexane]

inhibition of deoxyhypusine synthase (in words) [2, 4]: strong inhibition
Molecule: NCCCCCCCN [Compound 6, 1,7-diaminoheptane]

inhibition of deoxyhypusine synthase (in words) [2, 4]: strong inhibition
Molecule: NCCCCCCCCN [Compound 7, 1,8-diaminooctane]

Molecule: NCCCNCCCN [Compound 9, caldine]
inhibition of deoxyhypusine synthase (in words) ([2]; pH 9.3): some degree of inhibition
substrate or cofactor function for deoxyhypusine synthase (deoxyhypusine synthase; listed as caldine): no detectable substrate property
substrate or cofactor function for deoxyhypusine synthase (deoxyhypusine synthase; listed as compound 9): fails to serve as a substrate

Molecule: NCCCCNCCCN [Compound 10, spermidine]
pKa of N1-amino group [3]: 9.94
pKa of N8-amino group [3]: 10.81

inhibition of deoxyhypusine synthase (in words) [2, 4]: some degree of inhibition
Molecule: NCCCCCNCCCN [Compound 11, N-(3-aminopropyl)cadaverine]
substrate or cofactor function for deoxyhypusine synthase (deoxyhypusine synthase; listed as N-(3-aminopropyl)cadaverine): function as a substrate for deoxyhypusine synthase, albeit a poor one; also recorded: acts as a substrate
substrate or cofactor function for deoxyhypusine synthase (deoxyhypusine synthase; listed as compound 11): functions as a substrate, albeit a poor one

Molecule: NCCCNCCCCNCCCN [Compound 12, spermine]
inhibition of deoxyhypusine synthase (in words) ([2]; pH 9.3): failure

Molecule: CCCCCCCCN [Compound 13]
inhibition of deoxyhypusine synthase (in words) [2, 4]: does not appear to interact to any significant extent

inhibition of deoxyhypusine synthase (in words) [2, 4]: loss in binding
Molecule: c1ccc(CNCCCCCCCCNCc2ccccc2)cc1 [Compound 25, N,N'-bis-benzyl-1,8-diaminooctane]

Molecule: CN(CCCN)CCCN [Compound 30, N^4 -methylcaldine]
inhibition of deoxyhypusine synthase (in words) [2, 4]: devoid of inhibitory activity; also recorded: do not interact with the active site of the enzyme

inhibition of deoxyhypusine synthase (in words) [2, 4]: failure to inhibit the enzyme
Molecule: NCCCN1CCC(CN)CC1 [Compound 31, 1-(3-Aminopropyl)-4-aminomethylpiperidine]

inhibition of deoxyhypusine synthase (in words) [2, 4]: failure to inhibit the enzyme
Molecule: NCCCN[C@H]1CC[C@@H](N)CC1 [Compound 32, N-(3-aminopropyl)-1,4-diaminocyclohexane]

inhibition of deoxyhypusine synthase (in words) [2, 4]: failure to inhibit the enzyme
Molecule: NCCCN[C@H]1CC[C@H](N)CC1 [Compound 33, N-(3-aminopropyl)-1,4-diaminocyclohexane]

Molecule: CC(C)(CCCN)NCCCN [Compound 34, 5,5-dimethylspermidine]
inhibition of deoxyhypusine synthase (in words) [2, 4]: abolished inhibition; also recorded: failure to inhibit the enzyme

inhibition of deoxyhypusine synthase (in words) [2, 4]: Some degree of inhibition
Molecule: CC(N)CCNCCCCN (stereo not drawn) [Compound 35, 1-Methyl spermidine]

Molecule: NCCCNCC(F)CCN (stereo not drawn) [Compound 36, 6-fluorospermidine]
inhibition of deoxyhypusine synthase (in words) [2, 4]: quite strong inhibitors; also recorded: effective inhibition; also recorded: act as inhibitors
inhibition of deoxyhypusine synthase [1]: 86%
pKa of N1-amino group [3]: 10.40
pKa of N8-amino group [3]: 9.55

Molecule: NCCCNCCCON [Compound 39, N-(3-aminooxypropyl)-1,3-diaminopropane]
inhibition of deoxyhypusine synthase (in words) [2, 4]: without effect; also recorded: does not function as an inhibitor
pKa of aminooxy group ([3]; aminooxy group): 4.5-5.0

Molecule: N=C(N)NCCCCCCNC(=N)N [Compound 41, N^1,N^6-bisguanyl-1,6-diaminohexane]
relative inhibitory potency (in words) [2]: inhibition not widely different from its parent amine
inhibition of deoxyhypusine synthase (in words) [2, 4]: acted as inhibitors of deoxyhypusine synthase

Ki [2]: 1200 nM
Molecule: N=C(N)NCCCCCCCNC(=N)N [Compound 42, N^1,N^7-bisguanyl-1,7-diaminoheptane]
relative inhibitory potency (in words) [2]: inhibition not widely different from its parent amine
inhibition of deoxyhypusine synthase (in words) [2, 4]: acted as inhibitors of deoxyhypusine synthase

Molecule: N=C(N)NCCCCCCCCNC(=N)N [Compound 43, N^1,N^8-bisguanyl-1,8-diaminooctane]
relative inhibitory potency (in words) [2]: somewhat stronger an inhibitor than guazatine (compound 40), showed no better inhibition than the parent diamine, 1,8-diaminooctane (compound 7); also recorded: inhibition not widely different from its parent amine
inhibition of deoxyhypusine synthase (in words) [2, 4]: acted as inhibitors of deoxyhypusine synthase

Molecule: N=C(N)NCCCNC(=N)N [Compound 44, N^1,N^3-bisguanyl-1,3-diaminopropane]
inhibition of deoxyhypusine synthase (in words) [2, 4]: without inhibitory property; also recorded: no inhibition was detected

inhibition of deoxyhypusine synthase (in words) [2, 4]: somewhat reduced inhibition
increase in IC50 by bisguanylation ([2]; vs parent caldine (45 vs 9)): 5 fold
Molecule: N=C(N)NCCCNCCCNC(=N)N [Compound 45, N^1,N^7 -bisguanyl caldine]
relative inhibitory potency (in words) [2]: inhibition not widely different from its parent amine

Molecule: N=C(N)NCCCN [Compound 46, N^1-guanyl-1,3-diaminopropane]
inhibition of deoxyhypusine synthase (in words) [2, 4]: without inhibitory property; also recorded: no inhibition was detected

Molecule: N=C(N)NCCCCN [Compound 47, agmatine]
inhibition of deoxyhypusine synthase (in words) [2, 4]: moderate degree of inhibition; also recorded: mild degree of inhibition

inhibition of deoxyhypusine synthase (in words) [2, 4]: excellent inhibitors
Molecule: N=C(N)NCCCNCCCN [Compound 48, N^1 -guanylcaldine]
relative inhibitory potency (in words) [2]: far exceeding the parent amines, as well as their bisguanylated counterparts, in inhibitory potency; also recorded: uniformly more efficient inhibition

Molecule: N=C(N)NCCCCCCCN [Compound 49, N^1-guanyl-1,7-diaminoheptane]
relative inhibitory potency (in words) [2]: far exceeding the parent amines, as well as their bisguanylated counterparts, in inhibitory potency; also recorded: strongest inhibition of the compounds tested; also recorded: uniformly more efficient inhibition
Ki [2]: 9.7 nM
inhibition of deoxyhypusine synthase (in words) [2, 4]: excellent inhibitors
Ki, fold less than the apparent Km for spermidine ([2]; vs apparent Km for spermidine (4.5±0.7 μM)): about 450 fold

inhibition of deoxyhypusine synthase (in words) [2, 4]: excellent inhibitors
Molecule: N=C(N)NCCCCCCCCN [Compound 50, N^1-guanyl-1,8-diaminooctane]
relative inhibitory potency (in words) [2]: far exceeding the parent amines, as well as their bisguanylated counterparts, in inhibitory potency; also recorded: uniformly more efficient inhibition

Molecule: NC(=O)C1=CN([C@@H]2O[C@H](COP(=O)(O)OP(=O)(O)OC[C@H]3O[C@@H](n4cnc5c(N)ncnc54)[C@H](O)[C@@H]3O)[C@@H](O)[C@H]2O)C=CC1 [NADH]
substrate or cofactor function for deoxyhypusine synthase (deoxyhypusine synthase): negligible

Molecule: NC(=O)c1ccc[n+]([C@@H]2O[C@H](COP(=O)([O-])OP(=O)(O)OC[C@H]3O[C@@H](n4cnc5c(N)ncnc54)[C@H](OP(=O)(O)O)[C@@H]3O)[C@@H](O)[C@H]2O)c1 [NADP^+]
substrate or cofactor function for deoxyhypusine synthase (deoxyhypusine synthase): negligible

Molecule: NCCCC[C@H](N)C(=O)O [free lysine, lysine]
substrate or cofactor function for deoxyhypusine synthase (deoxyhypusine synthase): Neither free lysine nor synthetic 9- or 16-member peptides modeled on the amino acid sequence encompassing the lysine residue in eIF-5A precursors that undergoes modification to hypusine, function as substrates

Molecule: altered eIF-5A precursor protein, in which Lys^50 is replaced by Arg: altered eIF-5A precursor protein, in which Lys^50 is replaced by Arg
substrate or cofactor function for deoxyhypusine synthase (deoxyhypusine synthase): is not
